Here are results for 34 compounds from patent US20130303509A1, “NAMPT INHIBITORS” (AbbVie Inc., priority 2012, published 2013).

The structures appear in SMILES notation.

The test relates to PC3 cells. Nature of the test: NAMPT Cell Proliferation Assay. The following applies: Homo sapiens, PC-3, 120 h, 5 days incubation, cell viability by Cell Titer Glo. In kind it is cell-based. The method in brief:
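Seeded at 500 cells/well in RPMI with 10% heat-inactivated FBS and left to attach overnight at 37° C, 5% CO2. Compounds were added as 10-fold dilutions […] for 5 days, then viability was read by CellTiter-Glo. IC50s came from sigmoidal fits of percent inhibition.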
(In ATP-based viability assays light output follows the ATP content of the culture.)

With `CC(C)CC(=O)N1CC[C@@H](Oc2ccc(NC(=O)C3CN(c4cccnn4)C3)cc2)C1` [Example 520, N-(4-{[(3R)-1-(3-methylbutanoyl)pyrrolidin-3-yl]oxy}phenyl)-1-(pyridazin-3-yl)azetidine-3-carboxamide], half-maximal inhibition (IC50) required 0.47 nM. The result for `O=C(Nc1ccc(O[C@@H]2CCN(C(=O)CC(F)(F)F)C2)cc1)C1CN(c2cccnn2)C1` [Example 521, 1-(pyridazin-3-yl)-N-(4-{[(3R)-1-(3,3,3-trifluoropropanoyl)pyrrolidin-3-yl]oxy}phenyl)azetidine-3-carboxamide] reads 4.72 nM; that for `O=C(Nc1ccc(O[C@@H]2CCN(C(=O)C(F)(F)c3ccccc3)C2)cc1)C1CN(c2cccnn2)C1` [Example 522, N-[4-({(3R)-1-[difluoro(phenyl)acetyl]pyrrolidin-3-yl}oxy)phenyl]-1-(pyridazin-3-yl)azetidine-3-carboxamide], 0.78 nM; that for `CC(C)(C)C(=O)N1CC[C@@H](Oc2ccc(NC(=O)C3CN(c4cccnn4)C3)cc2)C1` [Example 523, N-(4-{[(3R)-1-(2,2-dimethylpropanoyl)pyrrolidin-3-yl]oxy}phenyl)-1-(pyridazin-3-yl)azetidine-3-carboxamide], 0.99 nM. To `O=C(Nc1ccc(O[C@@H]2CCN(C(=O)C3CCC(F)(F)CC3)C2)cc1)C1CN(c2cccnn2)C1` [Example 524, N-[4-({(3R)-1-[(4,4-difluorocyclohexyl)carbonyl]pyrrolidin-3-yl}oxy)phenyl]-1-(pyridazin-3-yl)azetidine-3-carboxamide] belongs 5.73 nM. The result for `O=C(Nc1ccc(C2CCN(C(=O)c3ccccc3Cl)CC2)cc1)C1CN(c2ccnnc2)C1` [Example 525, N-{4-[1-(2-chlorobenzoyl)piperidin-4-yl]phenyl}-1-(pyridazin-4-yl)azetidine-3-carboxamide] reads 0.93 nM. Regarding `O=C(Nc1ccc(C2CCN(C(=O)c3nccs3)CC2)cc1)C1CN(c2ccnnc2)C1` [Example 526, 1-(pyridazin-4-yl)-N-{4-[1-(1,3-thiazol-2-ylcarbonyl)piperidin-4-yl]phenyl}azetidine-3-carboxamide], inhibition was half-maximal at 0.94 nM (IC50). To `O=C(Nc1ccc(C2CCN(C(=O)CC3CC3)CC2)cc1)C1CN(c2ccnnc2)C1` [Example 527, N-{4-[1-(cyclopropylacetyl)piperidin-4-yl]phenyl}-1-(pyridazin-4-yl)azetidine-3-carboxamide] belongs 7.78 nM; to `CC(C)C(=O)N1CCC(c2ccc(NC(=O)C3CN(c4ccnnc4)C3)cc2)CC1` [Example 528, N-{4-[1-(2-methylpropanoyl)piperidin-4-yl]phenyl}-1-(pyridazin-4-yl)azetidine-3-carboxamide], 19.2 nM; to `O=C(Nc1ccc(C2CCN(C(=O)c3ccc(F)cc3)CC2)cc1)C1CN(c2ccnnc2)C1` [Example 529, N-{4-[1-(4-fluorobenzoyl)piperidin-4-yl]phenyl}-1-(pyridazin-4-yl)azetidine-3-carboxamide], 9.33 nM. The result for `O=C(Nc1ccc(C2CCN(C(=O)c3ccsc3)CC2)cc1)C1CN(c2ccnnc2)C1` [Example 530, 1-(pyridazin-4-yl)-N-{4-[1-(thiophen-3-ylcarbonyl)piperidin-4-yl]phenyl}azetidine-3-carboxamide] reads 2.02 nM; that for `O=C(Nc1ccc(C2CCN(C(=O)Cc3ccc(F)cc3)CC2)cc1)C1CN(c2ccnnc2)C1` [Example 531, N-(4-{1-[(4-fluorophenyl)acetyl]piperidin-4-yl}phenyl)-1-(pyridazin-4-yl)azetidine-3-carboxamide], 17.6 nM. As to `O=C(Nc1ccc(C2CCN(C(=O)Cc3cc(F)cc(F)c3)CC2)cc1)C1CN(c2ccnnc2)C1` [Example 532, N-(4-{1-[(3,5-difluorophenyl)acetyl]piperidin-4-yl}phenyl)-1-(pyridazin-4-yl)azetidine-3-carboxamide], the IC50 – broadly, the concentration that gives 50% inhibition – came out at 7.24 nM.

In the case of `O=C(Nc1ccc(C2CCN(C(=O)c3ccc(F)c(F)c3)CC2)cc1)C1CN(c2ccnnc2)C1` [Example 533, N-{4-[1-(3,4-difluorobenzoyl)piperidin-4-yl]phenyl}-1-(pyridazin-4-yl)azetidine-3-carboxamide], inhibition was half-maximal at 24.6 nM (IC50). To `O=C(Nc1ccc(C2CCN(C(=O)Cc3cccc(F)c3)CC2)cc1)C1CN(c2ccnnc2)C1` [Example 534, N-(4-{1-[(3-fluorophenyl)acetyl]piperidin-4-yl}phenyl)-1-(pyridazin-4-yl)azetidine-3-carboxamide] belongs 5.46 nM. The result for `O=C(Nc1ccc(C2CCN(C(=O)c3cccc(C(F)(F)F)c3)CC2)cc1)C1CN(c2ccnnc2)C1` [Example 535, 1-(pyridazin-4-yl)-N-(4-{1-[3-(trifluoromethyl)benzoyl]piperidin-4-yl}phenyl)azetidine-3-carboxamide] reads 9.39 nM; that for `O=C(Nc1ccc(C2CCN(C(=O)Cc3ccc(F)cc3F)CC2)cc1)C1CN(c2ccnnc2)C1` [Example 536, N-(4-{1-[(2,4-difluorophenyl)acetyl]piperidin-4-yl}phenyl)-1-(pyridazin-4-yl)azetidine-3-carboxamide], 6.14 nM; that for `O=C(Nc1ccc(C2CCN(C(=O)c3cscn3)CC2)cc1)C1CN(c2ccnnc2)C1` [Example 537, 1-(pyridazin-4-yl)-N-{4-[1-(1,3-thiazol-4-ylcarbonyl)piperidin-4-yl]phenyl}azetidine-3-carboxamide], 3.3 nM. The result for `O=C(Nc1ccc(C2CCN(C(=O)C3CCCO3)CC2)cc1)C1CN(c2ccnnc2)C1` (stereo not shown) [Example 538, 1-(pyridazin-4-yl)-N-{4-[1-(tetrahydrofuran-2-ylcarbonyl)piperidin-4-yl]phenyl}azetidine-3-carboxamide] reads 13.7 nM; that for `Cc1ccc(C(=O)N2CCC(c3ccc(NC(=O)C4CN(c5ccnnc5)C4)cc3)CC2)s1` [Example 539, N-(4-{1-[(5-methylthiophen-2-yl)carbonyl]piperidin-4-yl}phenyl)-1-(pyridazin-4-yl)azetidine-3-carboxamide], 2.57 nM; that for `O=C(Nc1ccc(C2CCN(C(=O)Cc3ccccc3F)CC2)cc1)C1CN(c2ccnnc2)C1` [Example 540, N-(4-{1-[(2-fluorophenyl)acetyl]piperidin-4-yl}phenyl)-1-(pyridazin-4-yl)azetidine-3-carboxamide], 3.91 nM. Take `O=C(Nc1ccc(C2CCN(C(=O)C3CC3)CC2)cc1)C1CN(c2ccnnc2)C1` [Example 541, N-{4-[1-(cyclopropylcarbonyl)piperidin-4-yl]phenyl}-1-(pyridazin-4-yl)azetidine-3-carboxamide]: the IC50 stood at 4.2 nM. The result for `O=C(Nc1ccc(C2CCN(C(=O)C3CCOC3)CC2)cc1)C1CN(c2ccnnc2)C1` (stereo not shown) [Example 542, 1-(pyridazin-4-yl)-N-{4-[1-(tetrahydrofuran-3-ylcarbonyl)piperidin-4-yl]phenyl}azetidine-3-carboxamide] reads 67.6 nM. In the case of `O=C(Nc1ccc(C2CCN(C(=O)c3ccccn3)CC2)cc1)C1CN(c2ccnnc2)C1` [Example 543, 1-(pyridazin-4-yl)-N-{4-[1-(pyridin-2-ylcarbonyl)piperidin-4-yl]phenyl}azetidine-3-carboxamide], it took 7.7 nM to reach half-maximal inhibition (IC50). This IC50 is about 8.8-fold lower than that of the compound before.

`O=C(Nc1ccc(C2CCN(C(=O)c3cccc(Cl)c3)CC2)cc1)C1CN(c2ccnnc2)C1` [Example 544, N-{4-[1-(3-chlorobenzoyl)piperidin-4-yl]phenyl}-1-(pyridazin-4-yl)azetidine-3-carboxamide] had an IC50 of 7.17 nM. To `O=C(Nc1ccc(C2CCN(C(=O)c3ccc(Cl)cc3)CC2)cc1)C1CN(c2ccnnc2)C1` [Example 545, N-{4-[1-(4-chlorobenzoyl)piperidin-4-yl]phenyl}-1-(pyridazin-4-yl)azetidine-3-carboxamide] belongs 15.2 nM. To `CC(C)(C(=O)N1CCC(c2ccc(NC(=O)C3CN(c4ccnnc4)C3)cc2)CC1)c1ccccc1` [Example 546, N-{4-[1-(2-methyl-2-phenylpropanoyl)piperidin-4-yl]phenyl}-1-(pyridazin-4-yl)azetidine-3-carboxamide] belongs 1.41 nM. To `O=C(Nc1ccc(C2CCN(C(=O)c3ccc(F)cc3F)CC2)cc1)C1CN(c2ccnnc2)C1` [Example 547, N-{4-[1-(2,4-difluorobenzoyl)piperidin-4-yl]phenyl}-1-(pyridazin-4-yl)azetidine-3-carboxamide] belongs 3.02 nM; to `COCC(=O)N1CCC(c2ccc(NC(=O)C3CN(c4ccnnc4)C3)cc2)CC1` [Example 548, N-{4-[1-(methoxyacetyl)piperidin-4-yl]phenyl}-1-(pyridazin-4-yl)azetidine-3-carboxamide], 64.9 nM.

In the case of `O=C(Nc1ccc(C2CCN(C(=O)c3cccs3)CC2)cc1)C1CN(c2ccnnc2)C1` [Example 549, 1-(pyridazin-4-yl)-N-{4-[1-(thiophen-2-ylcarbonyl)piperidin-4-yl]phenyl}azetidine-3-carboxamide], the IC50 amounted to 0.67 nM.

In the case of `O=C(Nc1ccc(C2CCN(C(=O)Cc3cccc(C(F)(F)F)c3)CC2)cc1)C1CN(c2ccnnc2)C1` [Example 550, 1-(pyridazin-4-yl)-N-[4-(1-{[3-(trifluoromethyl)phenyl]acetyl}piperidin-4-yl)phenyl]azetidine-3-carboxamide], half-maximal inhibition (IC50) required 8.21 nM. To `O=C(Nc1ccc(C2CCN(C(=O)c3ccccc3F)CC2)cc1)C1CN(c2ccnnc2)C1` [Example 551, N-{4-[1-(2-fluorobenzoyl)piperidin-4-yl]phenyl}-1-(pyridazin-4-yl)azetidine-3-carboxamide] belongs 0.48 nM; to `O=C(Nc1ccc(C2CCN(C(=O)c3cc(F)cc(F)c3)CC2)cc1)C1CN(c2ccnnc2)C1` [Example 552, N-{4-[1-(3,5-difluorobenzoyl)piperidin-4-yl]phenyl}-1-(pyridazin-4-yl)azetidine-3-carboxamide], 3.32 nM; to `O=C(Nc1ccc(C2CCN(C(=O)c3ccc(C(F)(F)F)cc3)CC2)cc1)C1CN(c2ccnnc2)C1` [Example 553, 1-(pyridazin-4-yl)-N-(4-{1-[4-(trifluoromethyl)benzoyl]piperidin-4-yl}phenyl)azetidine-3-carboxamide], 44.1 nM.
